The record followed here is patent publication US8426437B2, “Pyrroloquinoline derivatives and their use as protein kinases inhibitors” (Pierre Fabre Medicament, priority 2005, dated 2013).

This assay deals with T1, RET (Homo sapiens, UniProt P07949).
T1 construct: purchased Upstate 14-570MG
The experiment in a line: Inhibition of RET kinase activity, recombinant RET method (Kinase-Glo). It is filed as biochemical. As to conditions: RET 2 μg/ml, poly-EY4 substrate, 20 μM ATP, two hours at 30° C. A digest of the protocol:
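Recombinant RET at 2 μg/ml in 20 mM MOPS/NaOH pH 7.0, 1 mM EDTA, 5% glycerol, 0.01% Brij35, 0.1% 2-mercaptoethanol, 1 mg/ml BSA; compounds 10 nM–30 μM final.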
Background: In Kinase-Glo more light means more ATP remaining.

Where a name gives a salt, the structure may show the parent alone.

T1 sequence (P07949 29-1114): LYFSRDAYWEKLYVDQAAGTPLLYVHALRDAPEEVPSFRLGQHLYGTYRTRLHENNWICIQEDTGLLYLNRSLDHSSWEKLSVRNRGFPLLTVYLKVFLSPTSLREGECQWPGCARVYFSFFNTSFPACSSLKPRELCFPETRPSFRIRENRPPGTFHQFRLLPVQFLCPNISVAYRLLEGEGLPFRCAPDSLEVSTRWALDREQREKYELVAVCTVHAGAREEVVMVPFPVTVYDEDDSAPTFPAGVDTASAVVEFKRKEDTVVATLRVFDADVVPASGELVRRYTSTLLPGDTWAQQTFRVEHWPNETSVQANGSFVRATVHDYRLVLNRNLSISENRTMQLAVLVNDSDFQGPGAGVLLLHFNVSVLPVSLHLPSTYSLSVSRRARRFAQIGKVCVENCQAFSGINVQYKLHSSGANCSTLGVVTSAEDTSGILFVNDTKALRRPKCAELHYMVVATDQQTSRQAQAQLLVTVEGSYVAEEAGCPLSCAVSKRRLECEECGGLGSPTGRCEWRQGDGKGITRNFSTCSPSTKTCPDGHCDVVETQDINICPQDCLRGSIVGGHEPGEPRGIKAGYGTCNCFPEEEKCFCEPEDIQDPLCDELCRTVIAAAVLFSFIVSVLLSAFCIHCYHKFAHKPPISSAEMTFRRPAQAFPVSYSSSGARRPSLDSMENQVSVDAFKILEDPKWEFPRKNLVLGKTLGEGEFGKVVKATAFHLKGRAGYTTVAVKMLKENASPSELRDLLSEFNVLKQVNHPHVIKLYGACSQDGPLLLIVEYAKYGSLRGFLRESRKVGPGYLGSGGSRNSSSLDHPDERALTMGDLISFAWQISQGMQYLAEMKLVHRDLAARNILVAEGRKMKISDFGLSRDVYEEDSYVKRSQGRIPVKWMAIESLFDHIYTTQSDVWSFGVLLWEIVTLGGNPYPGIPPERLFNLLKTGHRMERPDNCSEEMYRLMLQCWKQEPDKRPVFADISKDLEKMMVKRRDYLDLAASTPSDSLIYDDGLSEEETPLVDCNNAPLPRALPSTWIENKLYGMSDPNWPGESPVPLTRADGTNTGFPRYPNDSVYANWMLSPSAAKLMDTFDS

Consider `C#CCN(CCN(C)C(=O)OC(C)(C)C)S(=O)(=O)c1ccc2[nH]c(=O)c3[nH]cc(C(=O)OCCC)c3c2c1` [Compound 157, 8-{[2-(tert-Butoxycarbonyl-methyl-amino)-ethyl]-prop-2-ynyl-sulfamoyl}-4-oxo-4,5-dihydro-3H-pyrrolo[2,3-c]quinoline-1-propyl carboxylate], for which the IC50 is under 0.1 µM. The figure for `C#CCN(CCNC(C)C)S(=O)(=O)c1ccc2[nH]c(=O)c3[nH]cc(C(=O)OCCC)c3c2c1` [Compound 158, 8-[(2-isopropylamino-ethyl)-prop-2-ynyl-sulfamoyl]-4-oxo-4,5-dihydro-3H-pyrrolo[2,3-c]quinoline-1-propyl carboxylate hydrochloride] is 0.1 to 1 µM; for `C#CCN(CCN(C(=O)OC(C)(C)C)C(C)C)S(=O)(=O)c1ccc2[nH]c(=O)c3[nH]cc(C(=O)OCCC)c3c2c1` [Compound 159, 8-{[2-(tert-Butoxycarbonyl-isopropyl-amino)-ethyl]-prop-2-ynyl-sulfamoyl}-4-oxo-4,5-dihydro-3H-pyrrolo[2,3-c]quinoline-1-propyl carboxylate] it is 1 to 10 µM. Turning to `CCCOC(=O)c1c[nH]c2c(=O)[nH]c3ccc(S(=O)(=O)N(CC)[C@H]4CCNC4)cc3c12` [Compound 160, (S)-8-(Ethyl-pyrrolidin-3-yl-sulfamoyl)-4-oxo-4,5-dihydro-3H-pyrrolo[2,3-c]quinoline-1-propyl carboxylate hydrochloride], the IC50 was under 0.1 µM. The figure for `CCCOC(=O)c1c[nH]c2c(=O)[nH]c3ccc(S(=O)(=O)N(CC)[C@H]4CCN(C)C4)cc3c12` [Compound 161, (S)-8-[Ethyl-(1-methyl-pyrrolidin-3-yl)-sulfamoyl]-4-oxo-4,5-dihydro-3H-pyrrolo[2,3-c]quinoline-1-propyl carboxylate] is under 0.1 µM.

With `CCOC(=O)c1c[nH]c2c(=O)[nH]c3ccc(S(=O)(=O)N4CCC[C@H]4CN4CCCC4)cc3c12` [Compound 163, (S)-4-Oxo-8-(2-pyrrolidin-1-ylmethyl-pyrrolidine-1-sulfonyl)-4,5-dihydro-3H-pyrrolo[2,3-c]quinoline-1-ethyl carboxylate], the IC50 was in the range of 0.1 to 1 µM.

Regarding `CCCOC(=O)c1c[nH]c2c(=O)[nH]c3ccc(S(=O)(=O)N4CC[C@H](NC(=O)OC(C)(C)C)C4)cc3c12` [Compound 164, (S)-8-(3-tert-Butoxycarbonylamino-pyrrolidine-1-sulfonyl)-4-oxo-4,5-dihydro-3H-pyrrolo[2,3-c]quinoline-1-propyl carboxylate], the IC50 lay in the range of 1 to 10 µM.

Take `CC(C)(C)OC(=O)N[C@H]1CCN(S(=O)(=O)c2ccc3[nH]c(=O)c4[nH]cc(C(=O)O)c4c3c2)C1` [Compound 165, (S)-8-(3-tert-Butoxycarbonylamino-pyrrolidine-1-sulfonyl)-4-oxo-4,5-dihydro-3H-pyrrolo[2,3-c]quinoline-1-carboxylic acid]: the IC50 is 10 to 100 µM. As for `CCCOC(=O)c1c[nH]c2c(=O)[nH]c3ccc(S(=O)(=O)N4CCC(NC)C4)cc3c12` (centres unmarked) [Compound 168, 8-(3-Methylamino-pyrrolidine-1-sulfonyl)-4-oxo-4,5-dihydro-3H-pyrrolo[2,3-c]quinoline-1-propyl carboxylate hydrochloride], the figure is 0.1 to 1 µM; as for `CCCOC(=O)c1c[nH]c2c(=O)[nH]c3ccc(S(=O)(=O)N4CCC(N(C)C(=O)OC(C)(C)C)C4)cc3c12` (centres unmarked) [Compound 169, 8-[3-(tert-Butoxycarbonyl-methyl-amino)-pyrrolidine-1-sulfonyl]-4-oxo-4,5-dihydro-3H-pyrrolo[2,3-c]quinoline-1-propyl carboxylate], 1 to 10 µM.

As to `CN(C(=O)OC(C)(C)C)C1CCN(S(=O)(=O)c2ccc3[nH]c(=O)c4[nH]cc(C(=O)O)c4c3c2)C1` (centres unmarked) [Compound 170, 8-[3-(tert-Butoxycarbonyl-methyl-amino)-pyrrolidine-1-sulfonyl]-4-oxo-4,5-dihydro-3H-pyrrolo[2,3-c]quinoline-1-carboxylic acid], the IC50 fell in the range of 10 to 100 µM. The figure for `CCCOC(=O)c1c[nH]c2c(=O)[nH]c3ccc(S(=O)(=O)N4CC[C@H](N(C)C)C4)cc3c12` [Compound 171] is 0.1 to 1 µM; for `CCCOC(=O)c1c[nH]c2c(=O)[nH]c3ccc(S(=O)(=O)N4CC[C@@H](N(C)C)C4)cc3c12` [Compound 172] it is 1 to 10 µM; for `CCCOC(=O)c1c[nH]c2c(=O)[nH]c3ccc(S(=O)(=O)N(CCO)C(C)C)cc3c12` [Compound 173, 8-[(2-Hydroxy-ethyl)isopropyl-sulfamoyl]-4-oxo-4,5-dihydro-3H-pyrrolo[2,3-c]quinoline-1-propyl carboxylate] it is under 0.1 µM. As for `CCCOC(=O)c1c[nH]c2c(=O)[nH]c3ccc(S(=O)(=O)N(CCO)C4CC4)cc3c12` [Compound 174, 8-[Cyclopropyl-(2-hydroxy-ethyl)-sulfamoyl]-4-oxo-4,5-dihydro-3H-pyrrolo[2,3-c]quinoline-1-propyl carboxylate], the figure is under 0.1 µM; as for `C#CCN(CCO)S(=O)(=O)c1ccc2[nH]c(=O)c3[nH]cc(C(=O)OCCC)c3c2c1` [Compound 175, 8-[(2-Hydroxy-ethyl)-prop-2-ynyl-sulfamoyl]-4-oxo-4,5-dihydro-3H-pyrrolo[2,3-c]quinoline-1-propyl carboxylate], 0.1 to 1 µM. As for `CCCOC(=O)c1c[nH]c2c(=O)[nH]c3ccc(S(=O)(=O)N(CCO)CCO)cc3c12` [Compound 176, 8-[bis-(2-Hydroxy-ethyl)-sulfamoyl]-4-oxo-4,5-dihydro-3H-pyrrolo[2,3-c]quinoline-1-propyl carboxylate], the figure is 0.1 to 1 µM; as for `CN(CC(N)=O)S(=O)(=O)c1ccc2[nH]c(=O)c3[nH]cc(C(=O)O)c3c2c1` [Compound 178, 8-(Carbamoylmethyl-methyl-sulfamoyl)-4-oxo-4,5-dihydro-3H-pyrrolo[2,3-c]quinoline-1-carboxylic acid], 1 to 10 µM. As for `CCCOC(=O)c1c[nH]c2c(=O)[nH]c3ccc(S(=O)(=O)N4CCCC(C(N)=O)C4)cc3c12` (centres unmarked) [Compound 179, 8-(3-Carbamoyl-piperidine-1-sulfonyl)-4-oxo-4,5-dihydro-3H-pyrrolo[2,3-c]quinoline-1-propyl carboxylate], the IC50 lay within 0.1 to 1 µM. With `NC(=O)C1CCCN(S(=O)(=O)c2ccc3[nH]c(=O)c4[nH]cc(C(=O)O)c4c3c2)C1` (centres unmarked) [Compound 180, 8-(3-Carbamoyl-piperidine-1-sulfonyl)-4-oxo-4,5-dihydro-3H-pyrrolo[2,3-c]quinoline-1-carboxylic acid], the IC50 was 10 to 100 µM. `CCCOC(=O)c1c[nH]c2c(=O)[nH]c3ccc(S(=O)(=O)N(CCOCc4ccccc4)C4CC4)cc3c12` [Compound 181, 8-[(2-Benzyloxy-ethyl)-cyclopropyl-sulfamoyl]-4-oxo-4,5-dihydro-3H-pyrrolo[2,3-c]quinoline-1-propyl carboxylate]: the IC50 was 1 to 10 µM. As for `CCCOC(=O)c1c[nH]c2c(=O)[nH]c3ccc(S(=O)(=O)N(C)CC(=O)O)cc3c12` [Compound 182, 8-(Carboxymethyl-methyl-sulfamoyl)-4-oxo-4,5-dihydro-3H-pyrrolo[2,3-c]quinoline-1-propyl carboxylate], the figure is 1 to 10 µM. As to `CCCOC(=O)c1c[nH]c2c(=O)[nH]c3ccc(S(=O)(=O)N(C)CC(=O)OC(C)(C)C)cc3c12` [Compound 183, 8-(tert-Butoxycarbonylmethyl-methyl-sulfamoyl)-4-oxo-4,5-dihydro-3H-pyrrolo[2,3-c]quinoline-1-propyl carboxylate], the IC50 fell in the range of 1 to 10 µM. Consider `CCCOC(=O)c1c[nH]c2c(=O)[nH]c3cc(F)c(S(=O)(=O)N(C)CCN(C)C)cc3c12` [Compound 184, 8-[(2-Dimethylamino-ethyl)-methyl-sulfamoyl]-7-fluoro-4-oxo-4,5-dihydro-3H-pyrrolo[2,3-c]quinoline-1-propyl carboxylate], for which the IC50 is under 0.1 µM. The figure for `CCCOC(=O)c1c[nH]c2c(=O)[nH]c3cc(F)c(S(=O)(=O)N(CCO)C(C)C)cc3c12` [Compound 185, 7-Fluoro-8-[(2-hydroxy-ethyl)-isopropyl-sulfamoyl]-4-oxo-4,5-dihydro-3H-pyrrolo[2,3-c]quinoline-1-propyl carboxylate] is under 0.1 µM; for `CCCOC(=O)c1c[nH]c2c(=O)[nH]c3cc(F)c(S(=O)(=O)N(C)C)cc3c12` [Compound 186, 8-Dimethylsulfamoyl-7-fluoro-4-oxo-4,5-dihydro-3H-pyrrolo[2,3-c]quinoline-1-propyl carboxylate] it is 0.1 to 1 µM. The figure for `CCCOC(=O)c1c[nH]c2c(=O)[nH]c3cc(F)c(S(=O)(=O)N(C)C4CC4)cc3c12` [Compound 187, 8-(Cyclopropyl-methyl-sulfamoyl)-7-fluoro-4-oxo-4,5-dihydro-3H-pyrrolo[2,3-c]quinoline-1-propyl carboxylate] is 0.1 to 1 µM; for `CCCOC(=O)c1c[nH]c2c(=O)[nH]c3cc(OC)c(S(=O)(=O)N(C)C4CC4)cc3c12` [Compound 188] it is 1 to 10 µM; for `CCCOC(=O)c1c[nH]c2c(=O)[nH]c3cc(Cl)c(S(=O)(=O)N(C)C)cc3c12` [Compound 189, 7-Chloro-8-dimethylsulfamoyl-4-oxo-4,5-dihydro-3H-pyrrolo[2,3-c]quinoline-1-propyl carboxylate] it is 0.1 to 1 µM. As for `COC(=O)c1c[nH]c2c(=O)[nH]c3ccc(S(=O)(=O)NN4CCCCC4)cc3c12` [Compound 191, 4-Oxo-8-(piperidin-1-ylsulfamoyl)-4,5-dihydro-3H-pyrrolo[2,3-c]quinoline-1-methyl carboxylate], the figure is 1 to 10 µM. Consider `COC(=O)c1c[nH]c2c(=O)[nH]c3ccc(S(=O)(=O)NN4CC5CCCC5C4)cc3c12` (centres unmarked) [Compound 192, 8-(Hexahydro-cyclopenta[c]pyrrol-2-ylsulfamoyl)-4-oxo-4,5-dihydro-3H-pyrrolo[2,3-c]quinoline-1-methyl carboxylate], for which the IC50 lay in the range of 1 to 10 µM. As for `COC(=O)c1c[nH]c2c(=O)[nH]c3ccc(S(=O)(=O)NN4CCN(C)CC4)cc3c12` [Compound 193, 8-(4-Methyl-piperazin-1-ylsulfamoyl)-4-oxo-4,5-dihydro-3H-pyrrolo[2,3-c]quinoline-1-methyl carboxylate], the figure is 1 to 10 µM.

In general, IC50 refers to the concentration needed to halve the response being measured.
